Values quoted from earlier work in patent publication US20260158011A1 (Achieve Life Sciences, Inc., priority 2023, published 2026).
Read-outs that look alike come from different tables or passages of the source.

What was measured:
smokers [1] = settings: Cochrane, Chantix (n > 7000); cited from earlier work
smokers [2] = settings: cited from earlier work
[3] = biological target: neuronal alpha4, beta2 (α4β2) receptors (Homo sapiens, UniProt P17787+P43681); settings: background studies; cited from earlier work
Sequence of neuronal alpha4, beta2 (α4β2) receptors (P43681 29-627 limits assumed): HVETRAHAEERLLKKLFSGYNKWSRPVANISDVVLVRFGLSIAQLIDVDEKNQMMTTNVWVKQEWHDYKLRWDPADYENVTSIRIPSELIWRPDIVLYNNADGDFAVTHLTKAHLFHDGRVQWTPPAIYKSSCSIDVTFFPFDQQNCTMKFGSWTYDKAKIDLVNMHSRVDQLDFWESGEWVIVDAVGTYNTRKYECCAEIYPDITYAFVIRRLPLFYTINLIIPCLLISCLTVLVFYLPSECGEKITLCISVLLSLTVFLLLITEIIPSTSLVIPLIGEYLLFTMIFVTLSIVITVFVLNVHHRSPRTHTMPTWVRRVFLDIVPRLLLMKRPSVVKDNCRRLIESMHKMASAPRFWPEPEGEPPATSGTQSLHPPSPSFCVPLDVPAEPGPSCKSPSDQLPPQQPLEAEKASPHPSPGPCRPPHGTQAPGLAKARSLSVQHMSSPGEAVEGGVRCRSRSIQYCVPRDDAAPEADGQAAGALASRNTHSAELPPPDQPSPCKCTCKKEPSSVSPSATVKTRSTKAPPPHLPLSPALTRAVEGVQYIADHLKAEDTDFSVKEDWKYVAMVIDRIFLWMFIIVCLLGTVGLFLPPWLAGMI
Sequence of neuronal alpha4, beta2 (α4β2) receptors (P17787 26-502): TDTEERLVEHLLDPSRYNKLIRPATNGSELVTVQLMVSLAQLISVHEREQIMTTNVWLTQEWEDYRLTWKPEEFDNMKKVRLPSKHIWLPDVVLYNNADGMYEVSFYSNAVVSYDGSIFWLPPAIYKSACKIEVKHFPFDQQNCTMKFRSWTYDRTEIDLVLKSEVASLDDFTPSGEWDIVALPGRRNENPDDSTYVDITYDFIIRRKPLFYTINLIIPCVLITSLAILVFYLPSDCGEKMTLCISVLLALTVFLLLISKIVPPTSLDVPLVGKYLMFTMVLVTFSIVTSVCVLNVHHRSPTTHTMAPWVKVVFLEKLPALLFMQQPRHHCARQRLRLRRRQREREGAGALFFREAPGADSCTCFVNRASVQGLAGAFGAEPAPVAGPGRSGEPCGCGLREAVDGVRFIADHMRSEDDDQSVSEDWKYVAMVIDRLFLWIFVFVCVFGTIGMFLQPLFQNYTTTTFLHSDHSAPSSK

SMILES: c1cnc2cc3c(cc2n1)[C@@H]1CNC[C@H]3C1 [Chantix ®, varenicline]
- Serious AEs (smokers [1]): 3.3%
- TEAE: Abnormal dreams (smokers [1]): 12.5%
- TEAE: Headache (smokers [1]): 12.7%
- TEAE: Insomnia (smokers [1]): 14.2%
- TEAE: Nausea (smokers [1]): 27.8%
- OR at End of Treatment (smokers [2]; Chantix 12 weeks (EAGLES), versus placebo): 4.0
- Drug-placebo difference in quit rate at End of Treatment (smokers [2]; Chantix 12 weeks (EAGLES)): 24.3%
- Quit Rate at End of Treatment (smokers [2]; Chantix 12 weeks (EAGLES)): 38.0%
- OR at 4 Weeks Off Treatment (smokers [2]; Chantix (EAGLES), versus placebo): 3.5
- Drug-placebo difference in quit rate at 4 Weeks Off Treatment (smokers [2]; Chantix (EAGLES)): 20.7%
- Quit Rate at 4 Weeks Off Treatment (smokers [2]; Chantix (EAGLES)): 33.2%
- OR at 4 Weeks Treatment (smokers [2]; Chantix (ONCKEN), versus placebo): 3.1
- Drug-placebo difference in quit rate at 4 Weeks Treatment (smokers [2]; Chantix (ONCKEN)): 21.4%
- Quit Rate at 4 Weeks Treatment (smokers [2]; Chantix (ONCKEN)): 37.7%
- Quit rate at 24 weeks (smokers [2]; EAGLES, U.S. patients (N=1065)): 16%
- Overall quit rate at 24 weeks (smokers [2]; EAGLES, all regions): 22%
- CAR weeks 9-24 % (95% CI) (smokers [2]; EAGLES, region Non-U.S.): 27.9 (25.2-30.8) % (95% CI)
- Versus placebo OR (95% CI), CAR weeks 9-24 (smokers [2]; EAGLES, region Non-U.S.): 2.80 (2.20-3.55)
- CAR weeks 9-24 % (95% CI) (smokers [2]; EAGLES, region U.S.): 16.1 (14.0-18.4) % (95% CI)
- Versus placebo OR (95% CI), CAR weeks 9-24 (smokers [2]; EAGLES, region U.S.): 2.66 (1.99-3.55)

SMILES: CN1CCCC1c1cccnc1 (stereo not drawn) [nicotine, reference compound]
- Binding to α4β2 receptors [3]: bind strongly and preferentially
